The source of these data is article PMC6353975, “Design and activity study of a melittin–thanatin hybrid peptide” (AMB Express, 2019).

For data set [1], the system named is S. aureus. The conditions noted are these: ref Fehlbaum et al. [1996]; Mandard et al. [1998]; cited from earlier work. From the text:
Thanatin, with a primary structure of […], is a type of antimicrobial peptide consisting of 21 amino acid residues. It is found in the insect Podisus maculiventris. […] It is a peptide consisting of 26 amino acids with a primary structure of […]. […] However, its clinical application is limited by its strong toxicity (mainly hemolytic activity), genotoxicity, and influence on gene expression (Gajski et al. [2016]; Wu et al. [2015]). To ...

For data set [2] the following is noted: thanatin data from the reference; ref Fehlbaum et al. [1996]; cited from earlier work. The source says: Table 1 Physicochemical properties of hybrid peptide | column: Isoelectric point (pI)
In data set [3] the test system is S. aureus. Description: In vitro antimicrobial experiments with the recombinant hybrid peptide. It counts as cell-based, Staphylococcus aureus. The conditions noted are these: recombinant peptide from E. coli fusion expression after acid hydrolysis; not obtained pure. From the text: To expand the antimicrobial spectrum of thanatin and avoid the toxic effects of melittin, a hybrid antimicrobial peptide was designed according to a previous study (Blondelle and Houghten [1991]). Hemolysis was slightly affected by the removal of C-terminal amino acids of melittin, according to the previous study (Jahnsen et al. [2015]). Four alkaline amino acids (KRKR) are located at the C-terminal amino acids of melittin. The hybrid antimicrobial peptide that includes the full-length of thanatin and the C-terminal of melittin may reveal a stronger and safer antibacterial effect (Leonardo et al. [2012]). The hybrid antimicrobial peptide […]-AGP-[…] was designed using melittin’s C-terminal 15-amino acid mutant GLPL*[…] (L*wild type was A) as the N-terminus and thanatin as the C-terminus and by ligating with AGP to create a hybrid peptide that could inhibit S. aureus without hemolytic activity. The fusion expression of the hybrid peptide was carried out in Escherichia coli by using genetic engineering techniques, and the acid hydrolysis site AP was added to the N-terminus of the hybrid peptide. After the engineered bacteria were fermented, separated, acid-hydrolyzed, and purified, another proline residue was found on the N-terminus of the resulting peptide, that is, […]. […] However, pure hybrid peptide was not obtained due to problems associated with acid hydrolysis. […]

For “GSKKPVPIIYCNRRTGKCQRM [Thanatin, thanatin, antimicrobial peptide of 21 amino acid residues found in the insect Podisus maculiventris]”, the “inhibition of S. aureus” value in data set [1] is “does not inhibit S. aureus”. The “Isoelectric point (pI)” value in data set [2] is 10.48.
With “PGLPLLISWIKRKRQQGSKKPVPIIYCNRRTGKCQRM [hybrid peptide expressed as fusion in Escherichia coli, acid-hydrolyzed, with another proline on the N-terminus; not obtained pure]”, the “inhibition of growth of S. aureus” value in data set [3] is reported as “inhibited the growth of S. aureus”.
